The experiment relates to highly tumor reactive A2/Melan-A multimer+ CD8+ T cell clones. The conditions noted are these: 4 h.

pIC50: −log10 of the molar value.

These results are taken from paper PMC2193921 (The Journal of Experimental Medicine, 2002).

As a reminder, the pIC50 is the IC50 on a negative log10 scale, so that one unit is a factor of ten. In turn, `CC[C@H](C)[C@H](NC(=O)CNC(=O)[C@H](C)NC(=O)[C@H](C)N)C(=O)NCC(=O)N[C@H](C(=O)N[C@@H](CC(C)C)C(=O)N[C@H](C(=O)N[C@H](C(=O)O)C(C)C)[C@@H](C)O)[C@@H](C)CC` [Melan-A 27–35] had a pIC50 of around 9.00.
